Source: ChEMBL document CHEMBL1201862, “PubChem BioAssay data set” (2004)
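48-hour exposure; five concentrations; linearly interpolated endpoints. GI50: concentration for 50% inhibition of growth.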 Activity calls are given as the source filed them. Rule as the data show it: active = GI50 up to about 1.1 µM and inactive = higher.

Columns and labels:
Test in all cases: NCI-60 cell line screen, 48 h
[1] = tested on: SK-MEL-28
[2] = tested on: COLO 205
[3] = tested on: OVCAR-3
[4] = tested on: A549
[5] = tested on: CCRF-CEM
[6] = tested on: OVCAR-5
[7] = tested on: MOLT-4
[8] = tested on: NCI-H226
[9] = tested on: A498
[10] = tested on: HCT-116
[11] = tested on: OVCAR-8
[12] = tested on: DMS-273
[13] = tested on: HT-29
[14] = tested on: HCT-15
[15] = tested on: SN12C
[16] = tested on: UO-31
[17] = tested on: NCI-H460
[18] = tested on: TK-10
[19] = tested on: SW-620
[20] = tested on: SK-MEL-5
[21] = tested on: CAKI-1
[22] = tested on: HOP-62
[23] = tested on: K562
[24] = tested on: SK-OV-3
[25] = tested on: DLD-1
[26] = tested on: KM-20L2
[27] = tested on: HOP-92
[28] = tested on: HL-60
[29] = tested on: HCC 2998
[30] = tested on: SK-MEL-2
[31] = tested on: 786-0
[32] = tested on: OVCAR-4
[33] = tested on: ACHN
[34] = tested on: M14
[35] = tested on: LOX IMVI
[36] = tested on: SR
[37] = tested on: NCI-H522
[38] = tested on: RPMI-8226
[39] = tested on: NCI-H23
[40] = tested on: M19-MEL
[41] = tested on: HOP-18
[42] = tested on: IGROV-1
[43] = tested on: KM12
[44] = tested on: Malme-3M
[45] = tested on: UACC-62
[46] = tested on: UACC-257
[47] = tested on: DMS-114
[48] = tested on: XF498
[49] = tested on: U-251
[50] = tested on: SF-539
[51] = tested on: SF-268
[52] = tested on: SNB-19
[53] = tested on: SNB-75
[54] = tested on: LXFL 529
[55] = tested on: SNB-78
[56] = tested on: SF-295
[57] = tested on: EKVX
[58] = tested on: DU-145
[59] = tested on: Hs-578T
[60] = tested on: MCF7
[61] = tested on: PC-3
[62] = tested on: BT-549
[63] = tested on: MDA-N
[64] = tested on: T47D
[65] = tested on: MDA-MB-435
[66] = tested on: RXF 393
[67] = tested on: MDA-MB-231
[68] = tested on: NCI/ADR-RES

Measured: GI50

C[C@H]1C[C@@H]2[C@H]([C@@H](O)C[C@@]3(C)[C@H]2CC[C@]3(O)C(=O)CO)[C@@]2(C)C=CC(=O)C=C12 [METHYLPREDNISOLONE]
inactive: [1] > 100 µM | [2] > 100 µM | [3] > 100 µM | [4] > 100 µM | [6] > 100 µM | [7] > 100 µM | [8] > 100 µM | [9] > 100 µM | [10] > 100 µM | [11] > 100 µM | [12] > 100 µM | [13] > 100 µM | [15] 46.6 µM | [16] > 100 µM | [17] > 100 µM | [18] > 100 µM | [19] > 100 µM | [20] > 100 µM | [21] > 100 µM | [22] > 100 µM | [23] > 100 µM | [24] > 100 µM | [25] > 100 µM | [26] > 100 µM | [27] > 100 µM | [28] > 100 µM | [29] > 100 µM | [30] > 100 µM | [31] > 100 µM | [32] > 100 µM | [33] > 100 µM | [34] > 100 µM | [35] > 100 µM | [36] > 100 µM | [37] > 100 µM | [38] > 100 µM | [39] > 100 µM | [40] > 100 µM | [41] > 100 µM | [42] > 100 µM | [43] > 100 µM | [44] > 100 µM | [45] > 100 µM | [46] > 100 µM | [47] > 100 µM
> 100 µM: [14]
active: [5] 0.0429 µM

O=C(O)CC12C3C4C5C3C1C5C42 (centres undefined)
inactive: [1] > 100 µM | [2] > 100 µM | [48] > 100 µM | [3] > 100 µM | [4] > 100 µM | [5] > 100 µM | [49] > 100 µM | [6] > 100 µM | [7] > 100 µM | [9] > 100 µM | [10] > 100 µM | [11] > 100 µM | [50] > 100 µM | [12] > 100 µM | [13] > 100 µM | [15] > 100 µM | [51] > 100 µM | [16] 68.9 µM | [52] > 100 µM | [17] > 100 µM | [18] > 100 µM | [53] 76.2 µM | [19] > 100 µM | [20] > 100 µM | [21] > 100 µM | [22] > 100 µM | [23] > 100 µM | [24] > 100 µM | [25] > 100 µM | [26] > 100 µM | [54] > 100 µM | [55] > 100 µM | [28] > 100 µM | [29] > 100 µM | [30] > 100 µM | [31] > 100 µM | [32] > 100 µM | [33] > 100 µM | [56] > 100 µM | [34] > 100 µM | [35] > 100 µM | [37] > 100 µM | [38] > 100 µM | [39] > 100 µM | [57] > 100 µM | [40] > 100 µM | [42] > 100 µM | [43] > 100 µM | [44] > 100 µM | [45] > 100 µM | [46] > 100 µM | [47] > 100 µM
> 100 µM: [14]

CN(C)c1ccc(C(=O)NCCCCCCC(=O)NO)cc1
inactive: [8] 2.75 µM | [52] 2 µM | [62] 1.7 µM | [22] 2.3 µM | [32] 1.64 µM | [57] 1.52 µM
active: [1] 0.434 µM | [2] 0.33 µM | [3] 0.519 µM | [4] 0.514 µM | [5] 0.238 µM | [49] 0.486 µM | [58] 0.335 µM | [6] 0.218 µM | [7] 0.241 µM | [59] 0.9 µM | [9] 0.711 µM | [10] 0.169 µM | [60] 0.237 µM | [11] 0.153 µM | [50] 0.589 µM | [13] 0.349 µM | [15] 0.378 µM | [61] 0.53 µM | [51] 0.435 µM | [16] 0.557 µM | [17] 0.417 µM | [18] 0.33 µM | [53] 0.251 µM | [19] 0.312 µM | [20] 0.289 µM | [21] 0.465 µM | [23] 0.337 µM | [24] 0.299 µM | [63] 0.233 µM | [27] 0.713 µM | [64] 0.216 µM | [28] 0.397 µM | [29] 0.348 µM | [30] 0.19 µM | [31] 0.973 µM | [33] 0.67 µM | [56] 0.326 µM | [34] 0.565 µM | [35] 0.272 µM | [65] 0.264 µM | [36] 0.205 µM | [37] 0.11 µM | [38] 0.195 µM | [66] 0.303 µM | [39] 0.562 µM | [67] 0.697 µM | [42] 0.553 µM | [43] 0.684 µM | [44] 0.0948 µM | [68] 0.14 µM | [45] 0.275 µM | [46] 0.237 µM
1.27 µM: [14]
